# Reference: patent US20060003016A1, “Therapeutic method for endolymphatic hydrops associated diseases” (priority 2004, published 2006)
# Like-named read-outs stand apart in the source and are kept apart here.
# Experiments:
# [1] = tested on: patients with Meniere's disease
# Excerpt: In the present case who could be followed up for more than 24 months after treatment with water intake, the therapeutic effect was judged by using the criteria of AAO-HNS (1995)^14), 15). Proviso that in an examination on changes of the hearing, although the criteria in the four-frequency pure-tone averages (PTA) of AAO-HNS (1995)^14) adopted mean values of the hearing levels consisting of 500 Hz, 1000 Hz, 2000 Hz and 3000 Hz, in our case, the value of 4000 Hz was used in stead of that of 3000 Hz.
# Therapeutic effect for vertigo^14), 15) was calculated according to the following equation. [formula]
# Namely, in the present case, vertiginous attack in 6 months during 18 months-24 months after the treatment was 0 time, and average numbers of rotatory vertigo per month for 6 months before the treatment were 2 times (i.e. onset in Mar. 5, 2000 and Jul. 22, 2000 within 6 months before Aug. 5, 2000). Consequently, applying the above equation: [formula] […] Clinical Case 4 Low Frequency Sensorineural Hearing Loss of the Right Ear
# [2] = tested on: patients with Meniere's disease and endolymphatic hydrops associated diseases; experiment: Clinical course of vertigo, aural fullness, tinnitus and hearing in clinical cases; assay type: in vivo, patient
# Excerpt: Therapeutic method of our invention is always performed after general examinations and standard laboratory examinations, such as blood pressure, plasma electrolytes, and urine osmolality. After consideration of body weight, age, sex, and life style, we directed the patients to take adequate water (see below) every day in combination with short-term application with isosorbite®. During the initial stage of the water intake method, recommended volume of water intake for adult male, weighing 60 kg, is calculated as 1.8-2.1 l per day according to the following formula (F 1). […] They seem to be nervous and live under the very strong psychological pressure.
# The present invention is explained in detail by mentioning clinical cases.
# [3] = case 1, water intake 2 lit./day continued, up to March 2004
structure (smiles),measurement,setting,value
"O [water intake, water]","category of therapeutic effect for vertigo, AAO-HNS criteria","[1]; case 3, water intake",complete control
same,vertiginous attack in 6 months during 18 months-24 months after the treatment,"[1]; case 3, water intake, 2 times in 6 months before",0 time
same,"category of therapeutic effect for vertigo, AAO-HNS criteria","[1]; case 6, water intake",complete control
same,vertiginous attack in 6 months during 18 months-24 months after the treatment,"[1]; case 6, water intake, 4 times estimated in 6 months before",0 time
same,"category of therapeutic effect for vertigo, AAO-HNS criteria","[1]; case 7, water intake",complete control
same,vertiginous attack in 6 months during 18 months-24 months after the treatment,"[1]; case 7, water intake, 0 time in 6 months before",0 time
same,"category of therapeutic effect for vertigo, AAO-HNS criteria","[1]; case 8, water intake",complete control
same,vertiginous attack in 6 months during 18 months-24 months after the treatment,"[1]; case 8, water intake, 1 in 6 months before",0 time
same,right hearing,[2]; [3],within normal range
same,rotatory vertigo,[2]; [3],no rotatory vertigo was noted
same,rotatory vertigo,"[2]; case 2, water intake 1.5 lit./day from Feb. 21, 2003 in addition to isosorbide 21 g/dose and difenidol hydrochloride 25 mg/dose on demand","remitted after May 3, 2003"
same,resound or aural fullness (in the right ear),"[2]; case 2, water intake 1.5 lit./day in addition to isosorbide and difenidol hydrochloride on demand","remitted after Aug. 18, 2003"
same,hearing level,"[2]; case 2, water intake 1.5 lit./day in addition to isosorbide and difenidol hydrochloride on demand, to February 2004",maintained within normal range
same,hearing,"[2]; case 3, water intake, up to January 2004",maintained within normal range
same,rotatory vertigo,"[2]; case 3, water intake, up to January 2004, except one attack Mar. 16, 2001",no rotatory vertigo was recognized
same,hearing of the right low tone,"[2]; case 4, water intake 1.5 lit./day, October 2003 to January 2004",maintained improved state
same,rotatory vertigo,"[2]; case 5, water intake 1.5 lit./day","could not be recognized after Oct. 24, 2002"
same,high frequency sensorineural hearing loss of the left ear,"[2]; case 5, water intake 1.5 lit./day plus isosorbide 63 g t.d.s. and adenosine triphosphate 300 mg t.d.s for 2 weeks","improved in Oct. 24, 2002"
same,low frequency sensorineural hearing loss of the left ear,"[2]; case 5, water intake 1.5 lit./day plus isosorbide and adenosine triphosphate for 2 weeks","improved from Nov. 29, 2002"
same,left hearing compared with right hearing,"[2]; case 5, water intake 1.5 lit./day, from Jul. 18, 2003",became equal level to the right hearing
same,left ear tinnitus,"[2]; case 5, water intake 1.5 lit./day, to January 2004",gradually remitted
same,rotatory vertiginous attack accompanied by tinnitus,"[2]; case 6, water intake with isosorbide and difenidol hydrochloride on demand, after Dec. 21, 2001 until February 2004",no rotary vertiginous attack
same,low frequency sensorineural hearing loss of the left ear,"[2]; case 7, water intake 300 ml before going to sleep in addition to steroid, VB12 and PGE1",improved
same,left hearing,"[2]; case 7, water intake continued (1.5 lit./day after September 2002), until now",maintained the improved state
same,right hearing level lower as compared with the left hearing level in all frequency range,"[2]; case 8, water intake, at present, 2 -25 dB at initial examination",5 -15 dB
same,rotatory vertigo,"[2]; case 8, water intake, during the progress after the initial examination",No rotatory vertigo could be recognized
same,outcome of most of patients with Meniere's disease,[2]; water intake method in combination with short-term isosorbide,improved without re-attack for 1-2 years
